This note sets out measurements from patent US20190142810A1, “MITOCHONDRIAL INHIBITORS FOR THE TREATMENT OF PROLIFERATION DISORDERS” (Basilea Pharmaceutica International AG, priority 2016, published 2019).

Broadly, the IC50 is the midpoint of a concentration-inhibition curve.

In one assay the test system is HeLa galactose cells. Put plainly: Cell growth and proliferation assay of HeLa galactose cells (crystal violet). Conditions: Homo sapiens, HeLa, 72 h, 72 hours incubation, crystal violet staining, absorbance at 590 nm. It counts as cell-based. As for the experimental part: The cervical tumor cell line HeLa (ATCC, CCL-2) was cultivated in DMEM medium (Invitrogen cat. no. 11971, 4.5 g/L high glucose) containing 10% fetal calf serum (Sigma cat. no. F9665) and 1% Penicillin/Streptomycin (Sigma cat. no. P0781) at 37° C. in 5% CO2. HeLa galactose cells (i.e. HeLa cells that grow in high concentrations of galactose) were generated from HeLa glucose cells (i.e. HeLa cells that grow in high concentrations of glucose) by gradually changing the amount of glucose in the media to zero glucose in the presence of galactose as a sugar source (50% galactose/50% glucose media for one week, then 75% galactose/25% glucose media for one week, to 100% galactose media in the third week). Galactose media (Invitrogen cat. no. 11966) was supplemented with 10 mM galactose (Sigma cat. no. G5388).
Cell Growth and Proliferation Assay of HeLa Galactose and Glucose Cells
HeLa galactose cells and HeLa glucose cells were seeded in 96 well plates (TPP, cat. no 92696) at 2000 and 1500 cells/well, respectively, in 100 μL of complete medium. After overnight incubation the cells were incubated for 72 hours in complete medium containing 0.001% DMSO or compounds (final concentration of DMSO 0.001%). After the medium was removed, cells were fixed and stained by adding 50 μL crystal violet staining (0.2% crystal violet (Sigma-Aldrich cat. no. C0775) in 50% methanol) per well. The plates were incubated for 1 hour at room temperature. Subsequently the stain was decanted and plates were washed 4 times with de-mineralized water. Plates were air-dried for 2 hours. The stain was dissolved by adding 100 μL buffer (0.1 M Tris pH 7.5, 0.2% SDS, 20% ethanol) per well and shaking the plates. Absorbance at 590 nm was measured using a SpectraMax® 250 plate reader (Molecular Devices). Antiproliferative/growth inhibition IC50s were calculated from concentration-response curves using GraphPad Prism software.

Assay [1] has as its system Oxygen consumption (mitochondrial function). Put plainly: Oxygen consumption assay (MitoXpress probe). It is filed as cell-based. Particulars: 5 h, MitoXpress probe signal, kinetic analysis at 37° C. for 5 hours, compared to untreated cells. From the text:
Oxygen consumption is one of the most informative and direct measures of mitochondrial function and can be measured, for example, by using the MitoXpress® assay (Luxcel MX-2001, Luxcel Biosciences). The MitoXpress® probe is one of a family of phosphorescent oxygen sensitive probes. The assay exploits the ability of oxygen to quench the excited state of the MitoXpress® probe. As the test material respires (i.e. the cells), oxygen is depleted in the surrounding solution/environment, which increases the probe phosphorescence signal. Changes in oxygen consumption reflecting changes in mitochondrial activity are seen as changes in the MitoXpress® probe signal over time.
Cells were seeded in 96 well black plates with transparent bottoms (Greiner Bio-One cat. no. 655090) at a density of 50′000 cells/well in a final volume of 100 μL. After 24 hours the incubation media was removed and 150 μL of fresh media containing inhibitors at different concentrations was added to each well. Then, 10 μL of MitoXpress® and 150 μL mineral oil were added per well. Reading from the top of the plate, kinetic analysis was performed at 37° C. for 5 hours using a Synergy 4 plate reader (BioTek) and Time-resolved Fluoresence (TRF) wavelengths of 380/11 nm excitation and 650/20 nm emission or 665/40 emission (30 microsecond delay time, 100 microsecond integration time, gain or sensitivity settings set at either medium or high). IC50s were calculated as the concentration that inhibits 50% of the phosphorescent oxygen sensitive probe signal (MitoXpress®) as compared to untreated cells.

Each structure is given as a SMILES string.

`Cc1ccc(CC2CCN(C(=O)Nc3nc(C)ns3)CC2)c(C)c1` [Example 12]: the IC50 with HeLa galactose cells was 19 nM; in assay [1], 500 nM.

On to `O=C(Nc1ncns1)N1CCC(Cc2ccc(Cl)cc2F)CC1` [Example 48], for which the values for the IC50 (in the assay on HeLa galactose cells; in assay [1]) were 146 nM and 278 nM, respectively.

As for `Cc1cc(NC(=O)N2CCC(Cc3ccc(Cl)cc3F)CC2)ccn1` [Example 72, 4-[(4-chloro-2-fluoro-phenyl)methyl]-N-(2-methyl-4-pyridyl)piperidine-1-carboxamide], the IC50 was determined as 34 nM in the assay on HeLa galactose cells and 68 nM in assay [1].

Turning to `CCc1nsc(NC(=O)N2CCC(Cc3ccc(Cl)cc3F)CC2)n1` [Example 70, 4-[(4-chloro-2-fluoro-phenyl)methyl]-N-(3-ethyl-1,2,4-thiadiazol-5-yl)piperidine-1-carboxamide], the IC50 in the assay with HeLa galactose cells stood at 30 nM; in assay [1], 65 nM.

As to `Cc1nsc(NC(=O)N2CCC(Cc3ccc(Cl)cc3)CC2)n1` [Example 2], the figures for the IC50 (in the assay with HeLa galactose cells; in assay [1]) were 41 nM and less than 100 nM, respectively.

On to `Cc1nsc(NC(=O)N2CCC(=Cc3ccc(OC(F)(F)F)cc3F)CC2)n1` [Example 54], for which the figures for the IC50 (in the assay with HeLa galactose cells; in assay [1]) were 186 nM and 235 nM, respectively.

Consider `Cc1nsc(NC(=O)N2CCC(Cc3c(F)cc(Cl)cc3Cl)CC2)n1` [Example 66], for which the IC50 in the assay on HeLa galactose cells is 67 nM; in assay [1], 119 nM.

Consider `Cc1nsc(NC(=O)N2CCC(Cc3ccc(Cl)cc3F)CC2)n1` [Example 9], for which the IC50 with HeLa galactose cells was 36 nM; in assay [1], less than 100 nM.

In the case of `Cc1nsc(NC(=O)N2CCC(=Cc3ccc(N(C)CCO)cc3F)CC2)n1` [Example 110], the IC50 in the assay with HeLa galactose cells was 66 nM; in assay [1], 151 nM.

As for `CCc1ccc(CC2CCN(C(=O)Nc3nc(C)ns3)CC2)cc1` [Example 17], the values for the IC50 (with HeLa galactose cells; in assay [1]) were 162 nM and 243 nM, respectively.

Turning to `O=C(Nc1ccncc1)N1CCC(=Cc2ccc(Cl)cc2F)CC1` [Example 94], the half-maximal inhibitory concentration (IC50) in the assay on HeLa galactose cells came out at 97 nM; in assay [1], 159 nM.

`Cc1nsc(NC(=O)N2CCC(Oc3ccc(Cl)cc3Cl)CC2)n1` [Example 20]: the IC50 with HeLa galactose cells was determined as 122 nM; in assay [1] it was 369 nM.

For the compound `Cc1nsc(NC(=O)N2CCC(C(=O)c3ccc(Cl)cc3F)CC2)n1` [Example 92, 4-(4-chloro-2-fluoro-benzoyl)-N-(3-methyl-1,2,4-thiadiazol-5-yl)piperidine-1-carboxamide], the IC50 in the assay on HeLa galactose cells worked out at 57 nM; in assay [1], 62 nM.

For the compound `Cc1nsc(NC(=O)N2CCC(Cc3ccc(C(F)(F)F)cc3)CC2)n1` [Example 10], the half-inhibitory concentration (IC50) stood at 36 nM in the assay on HeLa galactose cells and 200 nM in assay [1].

Regarding `Cc1cc(NC(=O)N2CCC(=Cc3c(F)cc(Cl)cc3F)CC2)ccn1` [Example 137, 4-[(4-chloro-2,6-difluoro-phenyl)methylene]-N-(2-methyl-4-pyridyl)piperidine-1-carboxamide], the IC50 in the assay with HeLa galactose cells is 17 nM; in assay [1] it was 42 nM.

Consider `Cc1nsc(NC(=O)N2CCC(Cc3c(F)cc(Cl)cc3F)CC2)n1` [Example 25, 4-[(4-chloro-2,6-difluoro-phenyl)methyl]-N-(3-methyl-1,2,4-thiadiazol-5-yl)piperidine-1-carboxamide], for which the IC50 came out at 18 nM in the assay on HeLa galactose cells and 55 nM in assay [1].

For `COC1CN(Cc2ccc(Cl)cc2F)CCN(C(=O)Nc2nc(C)ns2)C1` (stereo not shown) [Example 160, 4-[(4-chloro-2-fluoro-phenyl)methyl]-6-methoxy-N-(3-methyl-1,2,4-thiadiazol-5-yl)-1,4-diazepane-1-carboxamide], the figures for the IC50 (with HeLa galactose cells; in assay [1]) were 21 nM and 65 nM, respectively.

For the compound `Cc1nsc(NC(=O)N2CCC(Cc3ccc(N(C)C)cc3F)CC2)n1` [Example 46], the IC50 worked out at 47 nM with HeLa galactose cells and 129 nM in assay [1].

In the case of `Cc1nsc(NC(=O)N2CCC(C(=O)c3ccc(Br)cc3)CC2)n1` [Example 77, 4-(4-bromobenzoyl)-N-(3-methyl-1,2,4-thiadiazol-5-yl)piperidine-1-carboxamide], the IC50 in the assay on HeLa galactose cells came to 48 nM; in assay [1] it was 54 nM.

In the case of `Cc1nsc(NC(=O)N2CCC(=Cc3c(F)cc(N(C)CC4CN(C)C4)cc3F)CC2)n1` [Example 161], the IC50 in the assay with HeLa galactose cells amounted to 50 nM; in assay [1] it was 159 nM.

Turning to `Cc1nsc(NC(=O)N2CCC(Cc3ccc(C(C)(C)C)cc3)CC2)n1` [Example 11], the IC50 with HeLa galactose cells came to 193 nM; in assay [1], 1300 nM.

On to `Cc1nsc(NC(=O)N2CCC/C(=C/c3c(F)cc(N(C)C)cc3F)CC2)n1` [Example 115, (4Z)-4-[[4-(dimethylamino)-2,6-difluoro-phenyl]methylene]-N-(3-methyl-1,2,4-thiadiazol-5-yl)azepane-1-carboxamide], for which the IC50 in the assay with HeLa galactose cells worked out at 29 nM; in assay [1] it was 79 nM.

Take `O=C(Nc1nc(CCN2CCOCC2)ns1)N1CCC(=Cc2ccc(Cl)cc2F)CC1` [Example 79, 4-[(4-chloro-2-fluoro-phenyl)methylene]-N-[3-(2-morpholinoethyl)-1,2,4-thiadiazol-5-yl]piperidine-1-carboxamide]: the IC50 is 279 nM with HeLa galactose cells and 378 nM in assay [1].

`COc1ccc(CC2CCN(C(=O)Nc3nc(C)ns3)CC2)c(F)c1` [Example 30]: the IC50 in the assay on HeLa galactose cells was found to be 59 nM; in assay [1] it was 178 nM.

For the compound `CCc1nsc(NC(=O)N2CCC(=Cc3c(F)cc(N(C)C)cc3F)CC2)n1` [Example 149, 4-[[4-(dimethylamino)-2,6-difluoro-phenyl]methylene]-N-(3-ethyl-1,2,4-thiadiazol-5-yl)piperidine-1-carboxamide], the IC50 in the assay with HeLa galactose cells was 11 nM; in assay [1], 13 nM.

In the case of `COc1ccc(CC2CCN(C(=O)Nc3nc(C)ns3)CC2)cc1` [Example 3], the concentration for half-maximal inhibition (IC50) is 80 nM in the assay with HeLa galactose cells and less than 100 nM in assay [1].

On to `Cc1ccc(CC2CCN(C(=O)Nc3nc(C)ns3)CC2)cc1` [Example 5], for which the IC50 was found to be 36 nM in the assay with HeLa galactose cells and 100 nM in assay [1].

For `Cc1nsc(NC(=O)N2CCC(=Cc3c(F)cc(C#N)cc3F)CC2)n1` [Example 95, 4-[(4-cyano-2,6-difluoro-phenyl)methylene]-N-(3-methyl-1,2,4-thiadiazol-5-yl)piperidine-1-carboxamide], the IC50 in the assay on HeLa galactose cells is 20 nM; in assay [1], 30 nM.

In the case of `Cc1cc(NC(=O)N2CCC(C(=O)c3ccc(C(F)(F)F)cc3F)CC2)ccn1` [Example 143], the IC50 in the assay with HeLa galactose cells was 43 nM; in assay [1], 103 nM.

`CNc1nsc(NC(=O)N2CCC(Cc3ccc(Cl)cc3F)CC2)n1` [Example 166, 4-[(4-chloro-2-fluoro-phenyl)methyl]-N-[3-(methylamino)-1,2,4-thiadiazol-5-yl]piperidine-1-carboxamide] gave an IC50 in the assay with HeLa galactose cells of 407 nM.

In the case of `NCc1cc(NC(=O)N2CCC(=Cc3c(F)cc(Cl)cc3F)CC2)ccn1` [Example 180, N-[2-(aminomethyl)-4-pyridyl]-4-[(4-chloro-2,6-difluoro-phenyl)methylene]piperidine-1-carboxamide], the IC50 with HeLa galactose cells was determined as 330 nM.

For the compound `Cc1nsc(NC(=O)N2CCC(Cc3ccc(N4CCCC4)cc3)CC2)n1` [Example 42], it took 670 nM to reach half-maximal inhibition in the assay on HeLa galactose cells (IC50).

On to `Cc1nsc(NC(=O)N2CCC(=Cc3ccc(CN(C)CCO)cc3F)CC2)n1` [Example 90, 4-[[2-fluoro-4-[[2-hydroxyethyl(methyl)amino]methyl]phenyl]methylene]-N-(3-methyl-1,2,4-thiadiazol-5-yl)piperidine-1-carboxamide], for which, in the assay on HeLa galactose cells, 693 nM corresponded to half-maximal inhibition (IC50).

`NC(=O)Cc1nsc(NC(=O)N2CCC(=Cc3ccc(Cl)cc3F)CC2)n1` [Example 81, N-[3-(2-amino-2-oxo-ethyl)-1,2,4-thiadiazol-5-yl]-4-[(4-chloro-2-fluoro-phenyl)methylene]piperidine-1-carboxamide] gave an IC50 with HeLa galactose cells of 888 nM.

As for `Cc1cc(NC(=O)N2CCC(C(=O)c3c(F)cc(C#N)cc3F)CC2)ccn1` [Example 174], the midpoint of inhibition in the assay on HeLa galactose cells, the IC50, lay at 160 nM.
